Measurements: patent US6951876B2, “Sulfamoylheteroaryl pyrazole compounds as anti-inflammatory/analgesic agents” (Pfizer, Inc., priority 1999, dated 2005)
Where a name gives a salt, the structure may show the parent alone.

melting point | Compound
121 °C | Cl.NS(=O)(=O)c1ccc(-n2nc(C(F)(F)F)cc2-c2ccc(-c3cscn3)cc2)cn1
138 °C | Cl.NS(=O)(=O)c1ccc(-n2nc(C(F)(F)F)cc2-c2ccc(-c3cncs3)cc2)cn1
140 to 170 °C | NS(=O)(=O)c1ccc(-n2nc(C(F)(F)F)cc2-c2ccc(-c3ccco3)cc2)cn1 (as salt: hydrochloride) [Example 2, 5-[5-[4-(2-Furyl)phenyl]-3-(trifluoromethyl)-1H-pyrazol-1-yl]-2-pyridinesulfonamide]
169 °C | CCc1c(C(F)(F)F)nn(-c2ccc(S(N)(=O)=O)nc2)c1-c1ccc(-c2cncs2)cc1.Cl
145 °C | Cl.NS(=O)(=O)c1ccc(-n2nc(C(F)(F)F)c(F)c2-c2ccc(-c3cscn3)cc2)cn1
156 °C | NS(=O)(=O)c1ccc(-n2nc(C(F)(F)F)cc2-c2ccc(-c3ncco3)c(Cl)c2)cn1 (as salt: hydrochloride) [Example 3, 5-[5-[3-Chloro-4-(1,3-oxazol-2-yl)phenyl]-3-(trifluoromethyl)-1H-pyrazol-1-yl]-2-pyridinesulfonamide]

More lines, now with the values behind:

Compound | melting point
NS(=O)(=O)c1ccc(-n2nc(C(F)(F)F)cc2-c2ccc(-c3cscn3)c(C(F)(F)F)c2)cn1 [Example 5, 5-{5-[4-(1,3-Thiazol-4-yl)-3-(trifluoromethyl)phenyl]-3-(trifluoromethyl)-1H-pyrazol-1-yl}-2-pyridinesulfonamide] | 114 °C
CCc1c(-c2ccc(-c3cscn3)cc2)c(C(F)(F)F)nn1-c1ccc(S(N)(=O)=O)nc1.Cl | 141 °C
Cl.NS(=O)(=O)c1ccc(-n2nc(C(F)(F)F)c(Cl)c2-c2ccc(-c3cscn3)cc2)cn1 | 157 °C
NS(=O)(=O)c1ccc(-n2nc(C(F)(F)F)c(Cl)c2-c2ccc(-c3cncs3)c(Cl)c2)cn1 (as salt: methanesulfonate) [Example 16, 5-[4-Chloro-5-[3-chloro-4-(1,3-thiazol-5-yl)phenyl]-3-trifluoromethyl-1H-pyrazol-1-yl]-2-pyridinesulfonamide] | 191 to 193 °C
Cc1cc(-c2cc(C(F)(F)F)nn2-c2ccc(S(N)(=O)=O)cn2)ccc1-c1cscn1.Cl | 138 to 140 °C
